Values belong to the compound of their own block, whether it stands above or below them.
Columns and labels:
[1] = tested on: Lewis rats inoculated with peptidoglycan-polysaccharide (PG-PS); experiment: Histopathological examination of stifle joints (synovial inflammation); type: in vivo; conditions: scale of 1 (no inflammation) to 3, necropsy Day 30
Experimental: (§1) The ability of a dispersion comprising microparticles of an analgesic agent according to the invention to mediate pain and inflammation was investigated in an animal model. Lewis rats were inoculated with peptidoglycan-polysaccharide (PG-PS) (5.4 mg/mL, Lee Laboratories) by intraarticular injection in the right knee two weeks prior to the start of the examination period, i.e., on Day −14. PG-PS induces inflammation highly representative of that produced by certain drugs and is also used in models of arthritis. On Day 0, animals were dosed via single intraarticular injection of 70 μL saline, daily oral celecoxib 10 mg/kg, or single intraarticular injection of 70 μL (8.5 mg) ropivacaine suspension. Two hours post-dosing, the inflammatory response was activated by a tail vein injection of 0.5 mL of 0.4 mg/mL PG-PS. […] The animals in the saline and ropivacaine groups were re-dosed on Day 23, after the initial inflammatory response subsided, and the inflammatory response was reactivated on Day 28 by tail vein injection. The oral celecoxib was dosed 10 mg/kg daily throughout the study except for Day 29, when the dose was increased to 50 mg/kg. The test groups are described in Table 4:
(§2) Drug quantitation was performed on blood and plasma samples to assess the pharmacokinetic profiles of the drugs and the levels to which the drugs were present systemically. Knee joint tissues were also assayed for drug concentration in order to determine if any residual drug was present in the joints at the conclusion of the study. In addition, histological analysis and cytokine analysis were performed on knee joint tissues collected during necropsy on Day 30. […] Quantitation of celecoxib was performed on plasma and whole blood samples collected from the rats in Groups 2 to 5 at timepoints of 1, 6, 12, and 24 hours, and at 7, 14, 21, and 29 days. […] Celecoxib levels in Group 2 (saline control) were primarily below the quantitation limit, as expected. Celecoxib was also detected in the knee tissues from Groups 3, 4, and 5, with the Group 3 levels being the highest, followed by Group 4, and finally Group 5. […] Ropivacaine was undetected in the rat knee tissues.

[2] = slow release depot dosage form; cited from earlier work
[3] = relative, bupivacaine and ropivacaine; cited from earlier work
[4] = Drug quantitation in blood, plasma and knee joint tissues; type: in vivo, Lewis rats; conditions: for drug in knee tissues: end of study
Experimental: as §1, §2

Structure (SMILES): Cc1ccc(-c2cc(C(F)(F)F)nn2-c2ccc(S(N)(=O)=O)cc2)cc1 [Oral Celecoxib]
synovial inflammation score, Animal 1 [1]: 3
synovial inflammation score, Animal 2 [1]: 3
synovial inflammation score, Animal 3 [1]: 3
synovial inflammation score, Animal 4 [1]: 2

Structure (SMILES): CCCCN1CCCCC1C(=O)Nc1c(C)cccc1C (centres unmarked) [bupivacaine]
minimum tissue drug level found to alleviate pain [2]: 30 µg/mL
equipotent concentration [3]: 1

drug in knee tissues ([4]; Group 3, 10% suspension intraarticular): highest
interval up to which measurable levels were detected in the blood ([4]; Group 3, intraarticular 70 μL 10% suspension): ≤ 14 days
blood levels compared to Group 3 ([4]; Group 4 (5% suspension) vs Group 3 (10% suspension)): systematically lower
drug in knee tissues ([4]; Group 4, 5% suspension intraarticular): detected
interval up to which measurable levels were detected in the blood ([4]; Group 4, intraarticular 70 μL 5% suspension): ≤ 14 days
blood level on Day 29 ([4]; Group 4, intraarticular 70 μL 5% suspension, re-dosed Day 23): measurable levels
drug in knee tissues ([4]; Group 5, oral 10 mg/kg/day): detected
persistence of systemic levels in blood ([4]; after intraarticular injection, rat blood): approximately 2 weeks
Structure (SMILES): Cc1ccc(-c2cc(C(F)(F)F)nn2-c2ccc(S(N)(=O)=O)cc2)cc1 [celecoxib]

— patent US20150024031A1, “Methods And Compositions For Reducing Pain, Inflammation, And/Or Immunological Reactions Associated With Parenterally Administering A Primary Therapeutic Agent” (BAXTER INTERNATIONAL INC., priority 2013, published 2015)
